# Measured values from US20230339886A1 (University of Florida Research Foundation, Incorporated, priority 2020, published 2023).
# Target: T1, REV-ERBα LBD (human; residues 281-614 Δ324-422) (Homo sapiens, UniProt P20393, DEL324-422)
# T1 construct: 6×Histag-REV-ERBα LBD (human; residues 281-614 Δ324-422); made in house; host or cells: Escherichia coli
# Assay: TR-FRET corepressor interaction assay (REV-ERBα LBD, FITC-SMRT peptide)
# Type: biochemical
# Details: FITC-SMRT peptide, read-out: REVERBα agonism (EC50 class, FRET assay)
# In short: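 Compound serial dilutions (in DMSO, triplicate) incubated 2 h at 4 °C; Tb donor excited at 340 nm, emission read at 495 nm and FITC acceptor at 520 nm. TR-FRET ratio (520/495 nm) plotted against ligand concentration and fitted to a sigmoidal dose-response curve.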
# T1 sequence (P20393 with tags, fused parts or gaps DEL324-422): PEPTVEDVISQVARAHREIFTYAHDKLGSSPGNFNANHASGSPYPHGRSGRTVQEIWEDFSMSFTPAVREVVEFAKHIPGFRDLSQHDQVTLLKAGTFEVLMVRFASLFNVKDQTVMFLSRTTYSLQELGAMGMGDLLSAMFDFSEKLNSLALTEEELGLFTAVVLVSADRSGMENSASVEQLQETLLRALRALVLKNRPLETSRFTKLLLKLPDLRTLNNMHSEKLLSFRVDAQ
# T1 sequence (Q9Y618 2335-2356 partner limits assumed): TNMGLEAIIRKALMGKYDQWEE
row,EC50,Structure (SMILES)
1,< 0.5 µM,"CC(NS(=O)(=O)C1CC1)c1cn(CC(C)(C)C)c2cc(-c3ccccc3C(F)(F)F)c(F)cc12 (centres unmarked) [Example 423, N-(1-(5-fluoro-1-neopentyl-6-(2-(trifluoromethyl)phenyl)-1H-indol-3-yl)ethyl)cyclopropanesulfonamide]"
2,< 0.5 µM,"CC(C)(C)Cn1cc(C(NS(=O)(=O)C2CCC2)C2CC2)c2ccc(-c3ccccc3C(F)(F)F)cc21 (centres unmarked) [Example 424, N-(cyclopropyl(1-neopentyl-6-(2-(trifluoromethyl)phenyl)-1H-indol-3-yl)methyl)cyclobutanesulfonamide]"
3,< 0.5 µM,"CCC(NS(=O)(=O)C1CCC1)c1cn(CC(C)(C)C)c2cc(-c3ccccc3C(F)(F)F)ccc12 (centres unmarked) [Example 425, N-(1-(1-neopentyl-6-(2-(trifluoromethyl)phenyl)-1H-indol-3-yl)propyl)cyclobutanesulfonamide]"
4,0.5 to 3 µM,"CC(C)(C)Cn1cc([C@H](NS(=O)(=O)C2CC2(C)C)C(F)(F)F)c2ccc(-c3ccccc3C(F)(F)F)cc21 (stereo partly drawn) [Example 426, 2,2-dimethyl-N—((S)-2,2,2-trifluoro-1-(1-neopentyl-6-(2-(trifluoromethyl)phenyl)-1H-indol-3-yl)ethyl)cyclopropane-1-sulfonamide]"
5,< 0.5 µM,"CC(C)(C)Cn1cc([C@H](NS(=O)(=O)C2CCC2)C(F)(F)F)c2ccc(C3CCCC3)nc21 [Example 427, (S)—N-(1-(6-cyclopentyl-1-neopentyl-1H-pyrrolo[2,3-b]pyridin-3-yl)-2,2,2-trifluoroethyl)cyclobutanesulfonamide]"
6,< 0.5 µM,"CC(C)(C)Cn1cc([C@H](NS(=O)(=O)C2CCC2)C(F)(F)F)c2cc(F)c(C3CCCC3)cc21 [Example 428, (S)—N-(1-(6-cyclopentyl-5-fluoro-1-neopentyl-1H-indol-3-yl)-2,2,2-trifluoroethyl)cyclobutanesulfonamide]"
7,< 0.5 µM,"CC(C)(C)Cn1cc([C@H](CF)NS(=O)(=O)C2CCC2)c2ccc(-c3ccccc3C(F)(F)F)cc21 [Example 429, (R)—N-(2-fluoro-1-(1-neopentyl-6-(2-(trifluoromethyl)phenyl)-1H-indol-3-yl)ethyl)cyclobutanesulfonamide]"
8,> 3 µM,"CCOC(=O)[C@@H](NS(=O)(=O)C1CC1)c1cn(CC(C)(C)C)c2cc(-c3ccccc3C(F)(F)F)ccc12 [Example 430, ethyl (S)-2-(cyclopropanesulfonamido)-2-(1-neopentyl-6-(2-(trifluoromethyl)phenyl)-1H-indol-3-yl)acetate]"
9,> 3 µM,"CC(C)(C)Cn1cc([C@H](NS(=O)(=O)C2CC2)C(=O)O)c2ccc(-c3ccccc3C(F)(F)F)cc21 [Example 431, (S)-2-(cyclopropanesulfonamido)-2-(1-neopentyl-6-(2-(trifluoromethyl)phenyl)-1H-indol-3-yl)acetic acid]"
10,< 0.5 µM,"CC(C)(C)Cn1cc([C@@H](CO)NS(=O)(=O)C2CC2)c2ccc(-c3ccccc3C(F)(F)F)cc21 [Example 432, (S)—N-(2-hydroxy-1-(1-neopentyl-6-(2-(trifluoromethyl)phenyl)-1H-indol-3-yl)ethyl)cyclopropanesulfonamide]"
11,< 0.5 µM,"CC(NS(=O)(=O)C12CC(C1)C2)c1cn(CC(C)(C)C)c2cc(-c3ccccc3C(F)(F)F)ccc12 (centres unmarked) [Example 433, N-(1-(1-neopentyl-6-(2-(trifluoromethyl)phenyl)-1H-indol-3-yl)ethyl)bicyclo[1.1.1]pentane-1-sulfonamide]"
12,> 3 µM,"NC(=O)c1cccc(F)c1-c1ccc2c([C@H](NS(=O)(=O)C3CCC3)C(F)(F)F)cn(C3CCOCC3)c2c1 [Example 434, (S)-2-(3-(1-(cyclobutanesulfonamido)-2,2,2-trifluoroethyl)-1-(tetrahydro-2H-pyran-4-yl)-1H-indol-6-yl)-3-fluorobenzamide]"
13,< 0.5 µM,"CC(C)(C)Cn1cc([C@H](NS(=O)(=O)C2CCC2)C(F)F)c2cc(F)c(-c3ccccc3C(F)(F)F)cc21 [Example 435, (S)—N-(2,2-difluoro-1-(5-fluoro-1-neopentyl-6-(2-(trifluoromethyl)phenyl)-1H-indol-3-yl)ethyl)cyclobutanesulfonamide]"
14,< 0.5 µM,"CC(C)(C)Cn1cc([C@@H](CF)NS(=O)(=O)C2CCC2)c2cc(F)c(-c3ccccc3C(F)(F)F)cc21 [Example 436, (S)—N-(2-fluoro-1-(5-fluoro-1-neopentyl-6-(2-(trifluoromethyl)phenyl)-1H-indol-3-yl)ethyl)cyclobutanesulfonamide]"
15,0.5 to 3 µM,"CC(C)(C)Cn1cc([C@H](NS(=O)(=O)C2CC(F)C2)C(F)(F)F)c2ccc(-c3ccccc3C(F)(F)F)cc21 (stereo partly drawn) [Example 437, (S)-3-fluoro-N-(2,2,2-trifluoro-1-(1-neopentyl-6-(2-(trifluoromethyl)phenyl)-1H-indol-3-yl)ethyl)cyclobutane-1-sulfonamide]"
16,< 0.5 µM,"CCCn1cc([C@H](NS(=O)(=O)C2CCC2)C(F)(F)F)c2ccc(-c3ccccc3C(F)(F)F)cc21 [Example 438, (S)—N-(2,2,2-trifluoro-1-(1-propyl-6-(2-(trifluoromethyl)phenyl)-1H-indol-3-yl)ethyl)cyclobutanesulfonamide]"

# Same assay, conditions: Table 2, read-out: REVERBα agonism (EC50 class, FRET assay)
row,EC50,Structure (SMILES)
1,> 3 µM,"CC(C)(C)Cn1cc([C@H](NS(=O)(=O)C2CCC2)C(F)(F)F)c2ccc(C(F)(F)F)cc21 [Example 416, (S)—N-(2,2,2-trifluoro-1-(1-neopentyl-6-(trifluoromethyl)-1H-indol-3-yl)ethyl)cyclobutanesulfonamide]"
2,< 0.5 µM,"CC(C)S(=O)(=O)NCCn1cc(CC(C)(C)C)c2cc(-c3ccc(C(F)(F)F)cc3C(F)(F)F)ccc21 [Example 417, N-(2-(5-(2,4-bis(trifluoromethyl)phenyl)-3-neopentyl-1H-indol-1-yl)ethyl)propane-2-sulfonamide]"
3,< 0.5 µM,"CC(C)(C)Cc1cn(CCNS(=O)(=O)C2CCC2)c2ccc(-c3ccc(C(F)(F)F)cc3C(F)(F)F)cc12 [Example 418, N-(2-(5-(2,4-bis(trifluoromethyl)phenyl)-3-neopentyl-1H-indol-1-yl)ethyl)cyclobutanesulfonamide]"
4,0.5 to 3 µM,"CC(C)(C)Cn1cc([C@H](NS(=O)(=O)C2CC(F)(F)C2)C(F)(F)F)c2ccc(-c3ccccc3C(F)(F)F)cc21 [Example 419, (S)-3,3-difluoro-N-(2,2,2-trifluoro-1-(1-neopentyl-6-(2-(trifluoromethyl)phenyl)-1H-indol-3-yl)ethyl)cyclobutane-1-sulfonamide]"
5,< 0.5 µM,"CC(NS(=O)(=O)C1CC1)c1cn(CC(C)(C)C)c2cc(-c3ccccc3C(F)(F)F)ccc12 (centres unmarked) [Example 420, N-(1-(1-neopentyl-6-(2-(trifluoromethyl)phenyl)-1H-indol-3-yl)ethyl)-cyclopropanesulfonamide]"
6,< 0.5 µM,"O=S(=O)(N[C@@H](c1cn(CC2CCCC2)c2cc(-c3ccccc3C(F)(F)F)c(F)cc12)C(F)(F)F)C1CCC1 [Example 421, (S)—N-(1-(1-(cyclopentylmethyl)-5-fluoro-6-(2-(trifluoromethyl)phenyl)-1H-indol-3-yl)-2,2,2-trifluoroethyl)cyclobutanesulfonamide]"
7,< 0.5 µM,"O=S(=O)(N[C@@H](c1cn(CC2CCCC2)c2cc(-c3ccccc3C(F)(F)F)c(F)cc12)C(F)(F)F)C1CC1 [Example 422, (S)—N-(1-(1-(cyclopentylmethyl)-5-fluoro-6-(2-(trifluoromethyl)phenyl)-1H-indol-3-yl)-2,2,2-trifluoroethyl)cyclopropanesulfonamide]"
